Data reported in patent publication EP0525360B1, “Novel phenylacetamide derivatives and processes for the preparation thereof” (KOREA RESEARCH INSTITUTE OF CHEMICAL TECHNOLOGY, priority 1991, dated 1993).
Where a name gives a salt, the structure may show the parent alone. Read-outs that look alike come from different tables or passages of the source.

Assays:
[1] = tested on: Male albino rats(120-170g) of the Charles River Sprague-Dawley strain; experiment: Randall-Selitto test (yeast induced hyperalgesia); format: in vivo
Protocol: Randall-Selitto Test was carried out by following the method described in Arch. Int. Pharmacodyn.
Male albino rats(120-170g) of the Charles River Sprague-Dawley strain were used. Inflammation was produced by the injection of 0.1mℓ of a 20% suspension of Brewer's yeast into the plantar surface of the rat's hind foot.
The pain threshold was measured as the pressure in mmHg required to induce the desired response(a sharp audible squeak and/or struggle) when the pressure was applied to the foot. Air pressure from an air line was admitted through a needle valve to a 20mℓ glass syringe and to a pressure gauge which was connected by a T-tube. The syringe was mounted with the plunger downward to which was connected a short bullet-shaped Teflon peg. The pressure was applied to the foot of the rat at the rate of 10 mmHg per second. Drug was given 2 hours after the yeast injection. Two hours after the drug administration, threshold response was determined.
The analgesic activity was determined in terms of the percentage of inhibition of response: Inhibition(%) =(Threshold of the treated group - Threshold of the control group)/(Threshold of the control group)x 100 [formula]

[2] = tested on: mice; experiment: Tail-flick test (radiant heat); format: in vivo
Protocol: Radiant heat was applied using a beam of high-intensity light focused on a tail spot. The response time, defined as the interval between the onset of the stimulus and the tail flick, was measured electronically(to the nearest 0.1 second). The beam intensity was set at a level giving a mean control reaction time of 3.8±0.4 seconds. […] The percentage of inhibition was determined by the following equation: Inhibition(%) =(Reaction time of the treated group - Reaction time of the control group)/(Reaction time of the control group)x 100 [formula]

[3] = tested on: Rats(Sprague-Dawley, female); experiment: Anti-inflammatory test (carrageenin paw edema); format: in vivo; details: Rattus norvegicus, sc
Protocol: Rats(Sprague-Dawley, female) weighing 100 to 120g were used. Twenty minutes after the test drug was administered(s. c.), carrageenin was injected(0.1mℓ of 1% solution, s. c.) in the plantar surface of the right hind paw.
The percentage of inhibition was determined by the following equation: Inhibition(%) =(Volume of the carrageenin treated foot - Volume of the control foot)/(Volume of the contol foot)x 100 [formula]

[4] = tested on: KTC-ICR mice; experiment: acetic acid induced writhing test; format: in vivo; details: Mus musculus; oral; 0.9% acetic acid i.p. 60 minutes later; writhings during 10 minutes; mice 20 to 25g; Examples 1 to 32
Protocol: The KTC-ICR mice derived from Charles River Breeding Laboratory in the United States and provided by Experimental Animal Laboratory of Korea Research Institute of Chemical Technology were used as test animals. […] They were tested after having been adjusted to the testing environment for a week. Food and water were given freely; and illumination was maintained on a 12-hour cycle.
Experiments were performed in two ways: that is, the acetic acid induced writhing test and the phenyl-1,4-benzoquinone(PBQ) induced writhing test.
Solutions for the acetic acid induced writhing test were prepared by dissolving one of the end products prepared in Examples […] in a saline solution containing 1% by weight of Tween 80 to have a concentration of 5mg/mℓ and diluting it serially with the saline solution. The test solutions were administered orally in a dose of 0.3mℓ per 30g of body weight, using the 5 ICR mice for each test. 60 minutes later, 0.9% acetic acid solution was administered intraperitoneally in a dose of 0.1mℓ per 30g of body weight. 3 minutes thereafter, the number of writhings generated during a period of 10 minutes due to the administration of acetic acid was measured. For comparison purpose, initially, saline solution alone was administered orally to the control group. 60 minutes thereafter, 0.9% acetic acid solution was administered intraperitoneally to the control group.
The number of writhings suffered by the test group was compared with that of the control group; and the analgesic effect was measured in terms of the percentage of inhibition of writhing(I. W.). I. W. (%) =(A - B)/(A)x 100 [formula] A : the number of writhings suffered by the control group, B : the number of writhings suffered by the test group.
These ED50 values for the test compounds are shown in the last column of Table 1.

[5] = tested on: mice; experiment: Hot-plate test; format: in vivo; details: p. o.
Protocol: Mice were placed on an aluminum plate maintained at 55± 0.5°C by a thermo-regulator(Harvard). A glass cylinder, 15cm in height and 15cm in diameter, served to confine the mice to the heated plate. Blowing of the fore paws was used as the end-point for determination of response latency(measured to the neatest 0.1 second).

[6] = tested on: Rats(Sprague-Dawley); experiment: Tail-pinch test in rats with hyperalgesia induced by Freund's adjuvant; format: in vivo
Protocol: Rats(Sprague-Dawley) weighing 120g to 170g were used. Desiccated Mycobacterium butyricum(Difco Laboratories, Detroit, MI) was ground in a mortar, suspended in liquid paraffin, sterilized in an autoclave, and injected(0.5mg in 0.1mℓ, s.c.) in the distal region of the tail through a 1-inch 21-gauge needle. […] The hypersensitivity of the tail was examined as follows: the animal was held comfortably in one hand and gentle pressure was applied with the fingers of the opposite hand to the injected area. This gentle squeeze or "tail pinch" elicited a "squeak" from the animal. Five such stimuli were given at 4-second intervals. If the animal emitted no more than one squeak in five trials, it was recorded as having analgesia and given a rating of 1. […] The analgesic activity was determined by the following equation: Analgesic activity =(Total rating)/(Tested aminal number)x 100 [formula] The compound of Example 1, administered two hours before tail-pinch testing perorally, caused a dose related inhibition of adjuvant induced hyperalgesia, as shown in Table 6.

[7] = tested on: Rats(Sprague-Dawley, female); experiment: Local anti-inflammatory test (transdermal, carrageenin paw edema); format: in vivo; details: for Double Dose(24 hr), percentage of inhibition: transdermal double dose (second application 7 hours later), edema measured 24 hours later; for Single Dose(1 hr), percentage of inhibition: transdermal single dose, edema measured 1 hour later
Protocol: Rats(Sprague-Dawley, female) weighing 100 to 120g were used. 20 minutes after the test drug was administered transdermally (another application 7 hours later for double dose experiment), carrageenin was injected(0.1ml of 1% solution, s. c.) into the plantar surface of the right hind paw. The volume of the edema was measured with a volumeter either 1 hour later for […] dose experiment or 24 hours later for double dose experiment; and the percentage of inhibition was measured by the same equation as used in Anti-inflammatory Test.

[8] = acute toxicity test; details: mouse, in vivo, po, per os, 5 weeks old, observed for 14 days
[9] = tested on: Salmonella typhimurium TA 100; experiment: mutagenicity test (Maron and Ames); format: cell-based; details: 3.2, 16, 80 and 400µg/plate
Protocol: (§1) The numbers of mutated colonies were not increased at concentrations of 3.2, 16, 80 and 400µg/plate for the test compound.

[10] = tested on: Salmonella typhimurium TA98; experiment: mutagenicity test (Maron and Ames); format: cell-based; details: 3.2, 16, 80 and 400µg/plate
Protocol: as §1

[11] = Use Examples: administration of compositions to human subjects; format: in vivo
Protocol: One tablet was administered orally to a patient(weight: 67kg) in need of analgesia two times daily to successfully provide the effect of general analgesia.
The compound of Example 5 was dissolved in sesame oil with the aid of sonication and was packaged in soft gelatin capsules using the common methods known in the art.
The above ingredients were mixed to produce a syrup which was packaged under a sterile condition in 6 oz. bottles. One teaspoon of this formulation was administrated to a 70kg adult, reducing inflammation and producing analgesia.
The compound of Example 1 was dissolved in a solution containing the other ingredients.

[12] = dose 5 mg/Kg, 7 rats, Example 1 perorally two hours before testing
[13] = s. c., twenty minutes before carrageenin, edema volume 3 hours later, read-out: ED50
[14] = 5 ICR female mice, read-out: LD50(female)
[15] = 5 ICR male mice, read-out: LD50(male)

**Q.** Which “Inhibition(%)” value ([1]; dose 100 mg/Kg s. c., 10 rats, pain threshold vs yeast-treated saline control) does the source give for CC(=O)Oc1ccccc1C(=O)O [Aspirin] here?
**A.** 80.1%

**Q.** And the “Inhibition(%)” value ([2]; p. o., dose 100 mg/Kg)?
**A.** 0%

**Q.** What about the ED50 ([3]; 3 h) of the same compound?
**A.** 109 mg/kg

**Q.** With COc1cc(CC(=O)NCCCc2ccc(C)c(C)c2)ccc1OCCN [Example 1, N-{3-(3,4-dimethylphenyl)propyl}-4-(2-aminoethoxy)-3-methoxyphenylacetamide] as the compound, how does the ED50 [4] read?
**A.** 0.08 mg/kg

**Q.** What about the “Inhibition(%)” value ([1]; dose 5 mg/Kg p. o., 5 rats) of the same compound?
**A.** 247.4%

**Q.** What about the “Inhibition(%)” value ([2]; p. o., dose 1.25 mg/Kg) of the same compound?
**A.** 10%

**Q.** And the “Inhibition(%)” value ([2]; p. o., dose 2.5 mg/Kg)?
**A.** 60%

**Q.** And the “Inhibition(%)” value ([2]; p. o., dose 5.0 mg/Kg)?
**A.** 80%

**Q.** And the “Inhibition(%)” value ([2]; p. o., dose 7.5 mg/Kg)?
**A.** 90%

**Q.** And the “Inhibition(%)” value ([2]; s. c., dose 0.5 mg/Kg)?
**A.** 50%

**Q.** And the “Inhibition(%)” value ([2]; s. c., dose 1.0 mg/Kg)?
**A.** 70%

**Q.** And the “Inhibition(%)” value ([5]; dose 2.5 mg/Kg)?
**A.** 28.6%

**Q.** What about the “Inhibition(%)” value ([5]; dose 5.0 mg/Kg) of the same compound?
**A.** 48.9%

**Q.** What about the “Inhibition(%)” value ([5]; dose 10.0 mg/Kg) of the same compound?
**A.** 97.0%

**Q.** And the “Analgesic activity(%)” value [6, 12]?
**A.** 45.9%

**Q.** What about the “Analgesic activity(%)” value ([6]; dose 10 mg/Kg, 6 rats, perorally two hours before testing) of the same compound?
**A.** 66.7%

**Q.** What about the ED50 [3, 13] of the same compound?
**A.** 4 mg/kg

**Q.** And the “Double Dose(24 hr), percentage of inhibition” value [7]?
**A.** 32%

**Q.** And the “Single Dose(1 hr), percentage of inhibition” value [7]?
**A.** 66%

**Q.** And the LD50 at 336 h [8, 14]?
**A.** 364 mg/kg

**Q.** What about the LD50 at 336 h [8, 15] of the same compound?
**A.** 224 mg/kg

**Q.** What about the “numbers of mutated colonies” value [9] of the same compound?
**A.** not increased

**Q.** And the “numbers of mutated colonies” value [10]?
**A.** not increased

**Q.** What about the “local analgesia after topical application” value ([11]; Use Example 5 liquid (4g in glycerol/water), 0.4mℓ on 80cm^2 of the forearm, 60kg male adult) of the same compound?
**A.** local analgesia which lasted for two days

**Q.** What about the “skin irritation after topical application” value ([11]; Use Example 5 liquid, 0.4mℓ on 80cm^2 of the forearm, 60kg male adult) of the same compound?
**A.** Little or no skin irritation was observed

**Q.** With COc1cc(CC(=O)NCCCc2ccc(C)c(C)c2)ccc1OCCN [Example 1-HCl] as the compound, how does the “Inhibition(%)” value ([1]; dose 1.5 mg/Kg s. c., 8 rats) read?
**A.** 248.3%

**Q.** For COc1cc(CC(=O)NCCCc2cccc(C)c2)ccc1OCCN [Example 5], which ED50 [4] is on record?
**A.** 0.07 mg/kg

**Q.** And the ED50 [3, 13]?
**A.** 16.9 mg/kg

**Q.** And the LD50 at 336 h [8, 14]?
**A.** 125 mg/kg

**Q.** And the LD50 at 336 h [8, 15]?
**A.** 125 mg/kg

**Q.** What about the “analgesic and anti-inflammatory effect in a human subject” value ([11]; Use Example 2 soft gelatin capsules in sesame oil, two capsules, each 27mg of the composition, 63Kg person) of the same compound?
**A.** producing the effects of analgesia and reducing inflammation

**Q.** With Cc1ccc(CCCNC(=O)Cc2ccc(OCCN)c(F)c2)cc1 [Example 11] as the compound, how does the ED50 [4] read?
**A.** 0.01 mg/kg

**Q.** What about the LD50 at 336 h [8, 14] of the same compound?
**A.** 322 mg/kg

**Q.** And the LD50 at 336 h [8, 15]?
**A.** 500 mg/kg

**Q.** Which results are given for Cc1cc(C)cc(CCCNC(=O)Cc2ccc(OCCN)c(F)c2)c1 [Example 15]?
**A.** ED50 [4]: 0.02 mg/kg; LD50 at 336 h [8, 14]: > 2000 mg/kg; LD50 at 336 h [8, 15]: > 2000 mg/kg

**Q.** With CC(C(=O)O)c1cccc(C(=O)c2ccccc2)c1 (stereo not shown) [Ketoprofen] as the compound, how does the ED50 ([3]; 3 h) read?
**A.** 7.2 mg/kg

**Q.** For CN1CC[C@]23c4c5ccc(O)c4O[C@H]2[C@@H](O)C=C[C@H]3[C@H]1C5 [Morphine], which “Inhibition(%)” value ([1]; rat, in vivo, 3 mg/kg) is on record?
**A.** 391.7%

**Q.** Which “Analgesic activity(%)” value [6, 12] does the source give for COc1ccc2cc([C@H](C)C(=O)O)ccc2c1 [Naproxen, reference compound] here?
**A.** 28.6%

**Q.** And the ED50 [3, 13]?
**A.** 43 mg/kg

**Q.** And the “Double Dose(24 hr), percentage of inhibition” value [7]?
**A.** 25%

**Q.** And the “Single Dose(1 hr), percentage of inhibition” value [7]?
**A.** 54%
